In patent US20100267561A1, “HERBICIDAL PYRIDAZINONE DERIVATIVES” (priority 2007, published 2010):

Key:
Format in all cases: in vivo
[1] = system: large crabgrass (Digitaria sanguinalis); assay: Test B pre-/postemergence plant response; conditions: Preemergence
Procedure, shortened: (§1)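 Seeds were sown and sprayed preemergence, while plants at 2 to 18 cm (1- to 4-leaf stage) got postemergence sprays. Compounds were formulated in a non-phytotoxic solvent mixture with surfactant. After 13 to 15 days in a greenhouse, injury was rated visually against untreated controls, 0 (no effect) to 100 (complete control).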

[2] = system: common ragweed (Ambrosia elation); assay: Test B pre-/postemergence plant response; conditions: Preemergence
Procedure, shortened: as §1

[3] = system: goosegrass (Eleusine indica); assay: Test B pre-/postemergence plant response; conditions: Preemergence
Procedure, shortened: as §1

[4] = system: pigweed (Amaranthus retroflexus); assay: Test B pre-/postemergence plant response; conditions: Preemergence
Procedure, shortened: as §1

[5] = system: green foxtail (Setaria viridis); assay: Test B pre-/postemergence plant response; conditions: Preemergence
Procedure, shortened: as §1

[6] = system: giant foxtail (Setaria faberii); assay: Test B pre-/postemergence plant response; conditions: Preemergence
Procedure, shortened: as §1

[7] = system: woolly cupgrass (Eriochloa villosa); assay: Test B pre-/postemergence plant response; conditions: Preemergence
Procedure, shortened: as §1

[8] = system: wild oat (Avena fatua); assay: Test B pre-/postemergence plant response; conditions: Preemergence
Procedure, shortened: as §1

[9] = system: johnsongrass (Sorghum halepense); assay: Test B pre-/postemergence plant response; conditions: Preemergence
Procedure, shortened: as §1

[10] = system: common (oilseed) sunflower (Helianthus annuus); assay: Test B pre-/postemergence plant response; conditions: Preemergence
Procedure, shortened: as §1

[11] = system: eastern black (E.B.) nightshade (Solanum ptycanthum); assay: Test B pre-/postemergence plant response; conditions: Preemergence
Procedure, shortened: as §1

[12] = system: velvetleaf (Abutilon theophrasti); assay: Test B pre-/postemergence plant response; conditions: Preemergence
Procedure, shortened: as §1

[13] = system: rice (Oryza sativa); assay: Test B flooded paddy test plant response; conditions: Oryza sativa, read-out: Plant response rating, Rice
Procedure, shortened: (§2)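 Paddy-water application to 2-leaf plants in pots held under 3 cm of flooding; response is a 0–100 visual control rating against controls after 13 to 15 days, and a dash marks a missing result.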

[14] = system: ducksalad (Heteranthera limosa); assay: Test B flooded paddy test plant response; conditions: Heteranthera limosa, read-out: Plant response rating, Ducksalad
Procedure, shortened: as §2

[15] = Flood (flooded paddy test), 62 g ai/ha, scale 0 to 100, 0 no effect, 100 complete control
[16] = Flood (flooded paddy test), 125 g ai/ha, scale 0 to 100, 0 no effect, 100 complete control
[17] = Flood (flooded paddy test), 250 g ai/ha, scale 0 to 100, 0 no effect, 100 complete control
[18] = Flood, 31 g ai/ha, scale 0 to 100

Cc1cn(-c2ccc(Cl)cc2)nc1-c1c(O)cnn(C)c1=O [Compound 30, 4-[1-(4-chlorophenyl)-4-methyl-1H-pyrazol-3-yl]-5-hydroxy-2-methyl-3(2H)-pyridazinone]
pest or weed control at 16 g/ha ([1]; Digitaria sanguinalis, pre-emergence, 16 g ai/ha, scale 0 to 100 (0 no effect, 100 complete control), read-out: Plant response rating, Crabgrass, Large): 90%
pest or weed control at 31 g/ha ([1]; Digitaria sanguinalis, pre-emergence, 31 g ai/ha, 0 to 100 scale, 0 no effect, 100 complete control, read-out: Plant response rating, Crabgrass, Large): 100%
pest or weed control at 62 g/ha ([1]; Digitaria sanguinalis, pre-emergence, 62 g ai/ha, scale 0 to 100, read-out: Plant response rating, Crabgrass, Large): 100%
Crabgrass, Large plant response rating ([1]; 8 g ai/ha, scale 0 to 100): 80
pest or weed control at 16 g/ha ([2]; Ambrosia, pre-emergence, 16 g ai/ha, scale 0 to 100 (0 no effect, 100 complete control), read-out: Plant response rating, Ragweed): 0%
pest or weed control at 31 g/ha ([2]; Ambrosia, pre-emergence, 31 g ai/ha, 0 to 100 scale, 0 no effect, 100 complete control, read-out: Plant response rating, Ragweed): 0%
pest or weed control at 62 g/ha ([2]; Ambrosia, pre-emergence, 62 g ai/ha, scale 0 to 100, read-out: Plant response rating, Ragweed): 0%
Ragweed plant response rating ([2]; 8 g ai/ha, scale 0 to 100): 0
pest or weed control at 16 g/ha ([3]; Eleusine indica, pre-emergence, 16 g ai/ha, scale 0 to 100 (0 no effect, 100 complete control), read-out: Plant response rating, Goosegrass): 80%
pest or weed control at 31 g/ha ([3]; Eleusine indica, pre-emergence, 31 g ai/ha, 0 to 100 scale, 0 no effect, 100 complete control, read-out: Plant response rating, Goosegrass): 100%
pest or weed control at 62 g/ha ([3]; Eleusine indica, pre-emergence, 62 g ai/ha, scale 0 to 100, read-out: Plant response rating, Goosegrass): 100%
Goosegrass plant response rating ([3]; 8 g ai/ha, scale 0 to 100): 80
pest or weed control at 16 g/ha ([4]; Amaranthus retroflexus, pre-emergence, 16 g ai/ha, scale 0 to 100 (0 no effect, 100 complete control), read-out: Plant response rating, Pigweed): 0%
pest or weed control at 31 g/ha ([4]; Amaranthus retroflexus, pre-emergence, 31 g ai/ha, 0 to 100 scale, 0 no effect, 100 complete control, read-out: Plant response rating, Pigweed): 0%
pest or weed control at 62 g/ha ([4]; Amaranthus retroflexus, pre-emergence, 62 g ai/ha, scale 0 to 100, read-out: Plant response rating, Pigweed): 0%
Pigweed plant response rating ([4]; 8 g ai/ha, scale 0 to 100): 0
Foxtail, Green plant response rating ([5]; 8 g ai/ha, scale 0 to 100): 0
pest or weed control at 16 g/ha ([5]; Setaria viridis, pre-emergence, 16 g ai/ha, scale 0 to 100 (0 no effect, 100 complete control), read-out: Plant response rating, Foxtail, Green): 0%
pest or weed control at 31 g/ha ([5]; Setaria viridis, pre-emergence, 31 g ai/ha, 0 to 100 scale, 0 no effect, 100 complete control, read-out: Plant response rating, Foxtail, Green): 100%
pest or weed control at 62 g/ha ([5]; Setaria viridis, pre-emergence, 62 g ai/ha, scale 0 to 100, read-out: Plant response rating, Foxtail, Green): 100%
Foxtail, Giant plant response rating ([6]; 8 g ai/ha, scale 0 to 100): 60
pest or weed control at 16 g/ha ([6]; Setaria faberi, pre-emergence, 16 g ai/ha, scale 0 to 100 (0 no effect, 100 complete control), read-out: Plant response rating, Foxtail, Giant): 98%
pest or weed control at 31 g/ha ([6]; Setaria faberi, pre-emergence, 31 g ai/ha, 0 to 100 scale, 0 no effect, 100 complete control, read-out: Plant response rating, Foxtail, Giant): 100%
pest or weed control at 62 g/ha ([6]; Setaria faberi, pre-emergence, 62 g ai/ha, scale 0 to 100, read-out: Plant response rating, Foxtail, Giant): 100%
pest or weed control at 16 g/ha ([7]; Eriochloa villosa, pre-emergence, 16 g ai/ha, scale 0 to 100 (0 no effect, 100 complete control), read-out: Plant response rating, Cupgrass, Woolly): 75%
pest or weed control at 31 g/ha ([7]; Eriochloa villosa, pre-emergence, 31 g ai/ha, 0 to 100 scale, 0 no effect, 100 complete control, read-out: Plant response rating, Cupgrass, Woolly): 98%
pest or weed control at 62 g/ha ([7]; Eriochloa villosa, pre-emergence, 62 g ai/ha, scale 0 to 100, read-out: Plant response rating, Cupgrass, Woolly): 100%
Cupgrass, Woolly plant response rating ([7]; 8 g ai/ha, scale 0 to 100): 50
pest or weed control at 16 g/ha ([8]; Avena fatua, pre-emergence, 16 g ai/ha, scale 0 to 100 (0 no effect, 100 complete control), read-out: Plant response rating, Oat, Wild): 50%
pest or weed control at 31 g/ha ([8]; Avena fatua, pre-emergence, 31 g ai/ha, 0 to 100 scale, 0 no effect, 100 complete control, read-out: Plant response rating, Oat, Wild): 50%
pest or weed control at 62 g/ha ([8]; Avena fatua, pre-emergence, 62 g ai/ha, scale 0 to 100, read-out: Plant response rating, Oat, Wild): 80%
Oat, Wild plant response rating ([8]; 8 g ai/ha, scale 0 to 100): 50
Johnsongrass plant response rating ([9]; 8 g ai/ha, scale 0 to 100): 0
pest or weed control at 16 g/ha ([9]; Sorghum halepense, pre-emergence, 16 g ai/ha, scale 0 to 100 (0 no effect, 100 complete control), read-out: Plant response rating, Johnsongrass): 50%
pest or weed control at 31 g/ha ([9]; Sorghum halepense, pre-emergence, 31 g ai/ha, 0 to 100 scale, 0 no effect, 100 complete control, read-out: Plant response rating, Johnsongrass): 50%
pest or weed control at 62 g/ha ([9]; Sorghum halepense, pre-emergence, 62 g ai/ha, scale 0 to 100, read-out: Plant response rating, Johnsongrass): 98%
pest or weed control at 16 g/ha ([10]; Helianthus annuus, pre-emergence, 16 g ai/ha, scale 0 to 100 (0 no effect, 100 complete control), read-out: Plant response rating, Sunflower): 0%
pest or weed control at 31 g/ha ([10]; Helianthus annuus, pre-emergence, 31 g ai/ha, 0 to 100 scale, 0 no effect, 100 complete control, read-out: Plant response rating, Sunflower): 0%
pest or weed control at 62 g/ha ([10]; Helianthus annuus, pre-emergence, 62 g ai/ha, scale 0 to 100, read-out: Plant response rating, Sunflower): 0%
Sunflower plant response rating ([10]; 8 g ai/ha, scale 0 to 100): 0
Nightshade, E. B. plant response rating ([11]; 8 g ai/ha, scale 0 to 100): 0
pest or weed control at 16 g/ha ([11]; Solanum, pre-emergence, 16 g ai/ha, scale 0 to 100 (0 no effect, 100 complete control), read-out: Plant response rating, Nightshade, E. B.): 0%
pest or weed control at 31 g/ha ([11]; Solanum, pre-emergence, 31 g ai/ha, 0 to 100 scale, 0 no effect, 100 complete control, read-out: Plant response rating, Nightshade, E. B.): 0%
pest or weed control at 62 g/ha ([11]; Solanum, pre-emergence, 62 g ai/ha, scale 0 to 100, read-out: Plant response rating, Nightshade, E. B.): 0%
pest or weed control at 16 g/ha ([12]; Abutilon theophrasti, pre-emergence, 16 g ai/ha, scale 0 to 100 (0 no effect, 100 complete control), read-out: Plant response rating, Velvetleaf): 0%
pest or weed control at 31 g/ha ([12]; Abutilon theophrasti, pre-emergence, 31 g ai/ha, 0 to 100 scale, 0 no effect, 100 complete control, read-out: Plant response rating, Velvetleaf): 0%
pest or weed control at 62 g/ha ([12]; Abutilon theophrasti, pre-emergence, 62 g ai/ha, scale 0 to 100, read-out: Plant response rating, Velvetleaf): 0%
Velvetleaf plant response rating ([12]; 8 g ai/ha, scale 0 to 100): 0
plant injury at 62 g/ha [13, 15]: 0%
plant injury at 125 g/ha [13, 16]: 0%
plant injury at 250 g/ha [13, 17]: 0%
plant injury at 31 g/ha [13, 18]: 0%
pest or weed control at 62 g/ha [14, 15]: 0%
pest or weed control at 125 g/ha [14, 16]: 0%
pest or weed control at 250 g/ha [14, 17]: 0%
pest or weed control at 31 g/ha [14, 18]: 0%
